# Tests used:
# [1] = The drug is tested on Alistipes indistinctus strain: DSM22520 for biotransformation. The drug concentrations were measured before and after a 12-h incubation by liquid-chromatography-coupled mass spectrometry (LC–MS); conditions: 2 µM
# [2] = The drug is tested on Edwardsiella tarda strain: ATCC23685 for biotransformation. The drug concentrations were measured before and after a 12-h incubation by liquid-chromatography-coupled mass spectrometry (LC–MS); conditions: 2 µM
# [3] = The drug is tested on Subdoligranulum variabile strain: DSM15176 for biotransformation. The drug concentrations were measured before and after a 12-h incubation by liquid-chromatography-coupled mass spectrometry (LC–MS); conditions: 2 µM
# [4] = The drug is tested on Bacteroides pectinophilus strain: ATCC43243 for biotransformation. The drug concentrations were measured before and after a 12-h incubation by liquid-chromatography-coupled mass spectrometry (LC–MS); conditions: 2 µM
# [5] = bacteroides fragilis, 12 h, 2 µM
# Description: The drug is tested on Bacteroides fragilis strain: 3397 (T10) for biotransformation. The drug concentrations were measured before and after a 12-h incubation by liquid-chromatography-coupled mass spectrometry (LC–MS)
# [6] = The drug is tested on Bacteroides xylanisolvens strain: DSM18836 for biotransformation. The drug concentrations were measured before and after a 12-h incubation by liquid-chromatography-coupled mass spectrometry (LC–MS); conditions: 2 µM
# [7] = The drug is tested on Collinsella intestinalis strain: DSM13280 for biotransformation. The drug concentrations were measured before and after a 12-h incubation by liquid-chromatography-coupled mass spectrometry (LC–MS); conditions: 2 µM
# [8] = bacteroides fragilis, 12 h, 2 µM; remark: listed apart in the source
# [9] = bacteroides thetaiotaomicron, 12 h, 2 µM
# [10] = bacteroides thetaiotaomicron, 12 h, 2 µM; remark: listed apart in the source
# [11] = The drug is tested on Bacteroides coprophilus strain: DSM18228 for biotransformation. The drug concentrations were measured before and after a 12-h incubation by liquid-chromatography-coupled mass spectrometry (LC–MS); conditions: 2 µM
# [12] = The drug is tested on Bacteroides sp. WH2 strain: WH2 for biotransformation. The drug concentrations were measured before and after a 12-h incubation by liquid-chromatography-coupled mass spectrometry (LC–MS); conditions: bacteroides sp. wh2, 12 h, 2 µM
# [13] = The drug is tested on Eubacterium ventriosum strain: ATCC27560 for biotransformation. The drug concentrations were measured before and after a 12-h incubation by liquid-chromatography-coupled mass spectrometry (LC–MS); format: ADME; set-up: dose 2 uM, timepoint 0 vs 12 hours; conditions: 2 µM
# [14] = The drug is tested on Bacteroides ovatus strain: ATCC8483 for biotransformation. The drug concentrations were measured before and after a 12-h incubation by liquid-chromatography-coupled mass spectrometry (LC–MS); conditions: 2 µM
# [15] = The drug is tested on Anaerotruncus colihominis strain: DSM17241 for biotransformation. The drug concentrations were measured before and after a 12-h incubation by liquid-chromatography-coupled mass spectrometry (LC–MS); conditions: 2 µM
# [16] = The drug is tested on Blautia luti strain: DSM14534 for biotransformation. The drug concentrations were measured before and after a 12-h incubation by liquid-chromatography-coupled mass spectrometry (LC–MS); format: ADME; set-up: dose 2 uM, timepoint 0 vs 12 hours; conditions: 2 µM
# [17] = The drug is tested on Dorea formicigenerans strain: ATCC27755 for biotransformation. The drug concentrations were measured before and after a 12-h incubation by liquid-chromatography-coupled mass spectrometry (LC–MS); conditions: 2 µM
# [18] = The drug is tested on Clostridium ramosum strain: DSM1402 for biotransformation. The drug concentrations were measured before and after a 12-h incubation by liquid-chromatography-coupled mass spectrometry (LC–MS); conditions: thomasclavelia ramosa, 2 µM
# [19] = The drug is tested on Escherichia coli strain: BW25113 for biotransformation. The drug concentrations were measured before and after a 12-h incubation by liquid-chromatography-coupled mass spectrometry (LC–MS); conditions: 2 µM
Structure (SMILES),Bacterial Biotransformation [1],Bacterial Biotransformation [2],Bacterial Biotransformation [3],Bacterial Biotransformation [4],Bacterial Biotransformation [5],Bacterial Biotransformation [6],Bacterial Biotransformation [7],Bacterial Biotransformation [8],Bacterial Biotransformation [9],Bacterial Biotransformation [10],Bacterial Biotransformation [11],Bacterial Biotransformation [12],Bacterial Biotransformation [13],Bacterial Biotransformation [14],Bacterial Biotransformation [15],Bacterial Biotransformation [16],Bacterial Biotransformation [17],Bacterial Biotransformation [18],Bacterial Biotransformation [19]
N#Cc1ccc2[nH]cc(CCCCN3CCN(c4ccc5oc(C(N)=O)cc5c4)CC3)c2c1 [VILAZODONE],Compound metabolized,Compound NOT metabolized,Compound NOT metabolized,Compound NOT metabolized,Compound metabolized,Compound metabolized,Compound NOT metabolized,Compound metabolized,Compound metabolized,Compound metabolized,Compound metabolized,Compound metabolized,Compound NOT metabolized,Compound metabolized,Compound NOT metabolized,Compound NOT metabolized,Compound NOT metabolized,–,–
COc1ccc(CCN(C)CCCC(C#N)(c2ccc(OC)c(OC)c2)C(C)C)cc1OC (configuration not stated),Compound NOT metabolized,Compound NOT metabolized,Compound NOT metabolized,Compound NOT metabolized,–,Compound metabolized,Compound NOT metabolized,Compound NOT metabolized,Compound metabolized,Compound metabolized,Compound NOT metabolized,Compound NOT metabolized,–,Compound metabolized,Compound NOT metabolized,Compound NOT metabolized,Compound NOT metabolized,–,–
CS(=O)(=O)O.OC(CCN1CCCCC1)(c1ccccc1)c1ccccc1 [PRIDINOL METHANESULFONATE],–,Compound NOT metabolized,Compound NOT metabolized,Compound NOT metabolized,Compound NOT metabolized,Compound NOT metabolized,Compound NOT metabolized,Compound NOT metabolized,Compound NOT metabolized,Compound NOT metabolized,Compound NOT metabolized,Compound NOT metabolized,Compound NOT metabolized,Compound NOT metabolized,Compound NOT metabolized,Compound NOT metabolized,Compound NOT metabolized,Compound NOT metabolized,Compound NOT metabolized
C[C@@H](CO)NC(=O)[C@@H]1C=C2c3cccc4[nH]cc(c34)C[C@H]2N(C)C1.O=C(O)/C=C\C(=O)O [ERGONOVINE MALEATE],–,Compound NOT metabolized,Compound NOT metabolized,Compound metabolized,Compound metabolized,Compound metabolized,–,Compound metabolized,Compound NOT metabolized,Compound metabolized,Compound metabolized,Compound metabolized,Compound NOT metabolized,Compound metabolized,Compound metabolized,Compound NOT metabolized,Compound metabolized,Compound NOT metabolized,Compound NOT metabolized
